Laboratory results as given in US8541418B2, “Inhibitors of polo-like kinase” (Elan Pharmaceutical, Inc., priority 2009, dated 2013).

Experiments:
Format in all cases: biochemical
PLK2 = PLK2 (Homo sapiens, UniProt Q9NYY3); test: PLK TR-FRET peptide assay, PLK2; conditions: PLK TR-FRET peptide assay, GST-PLK2, 60 min reaction; read-out: Plk2 IC50
PLK1 = PLK1 (Homo sapiens, UniProt P53350); test: PLK TR-FRET peptide assay, PLK1; conditions: GST-PLK1, 60 min reaction
PLK3 = PLK3 (Homo sapiens, UniProt Q9H4B4); test: PLK TR-FRET peptide assay, PLK3; conditions: GST-PLK3, 15 min reaction, read-out: Plk3 IC50
Chain of PLK3 (Q9H4B4 whole entry): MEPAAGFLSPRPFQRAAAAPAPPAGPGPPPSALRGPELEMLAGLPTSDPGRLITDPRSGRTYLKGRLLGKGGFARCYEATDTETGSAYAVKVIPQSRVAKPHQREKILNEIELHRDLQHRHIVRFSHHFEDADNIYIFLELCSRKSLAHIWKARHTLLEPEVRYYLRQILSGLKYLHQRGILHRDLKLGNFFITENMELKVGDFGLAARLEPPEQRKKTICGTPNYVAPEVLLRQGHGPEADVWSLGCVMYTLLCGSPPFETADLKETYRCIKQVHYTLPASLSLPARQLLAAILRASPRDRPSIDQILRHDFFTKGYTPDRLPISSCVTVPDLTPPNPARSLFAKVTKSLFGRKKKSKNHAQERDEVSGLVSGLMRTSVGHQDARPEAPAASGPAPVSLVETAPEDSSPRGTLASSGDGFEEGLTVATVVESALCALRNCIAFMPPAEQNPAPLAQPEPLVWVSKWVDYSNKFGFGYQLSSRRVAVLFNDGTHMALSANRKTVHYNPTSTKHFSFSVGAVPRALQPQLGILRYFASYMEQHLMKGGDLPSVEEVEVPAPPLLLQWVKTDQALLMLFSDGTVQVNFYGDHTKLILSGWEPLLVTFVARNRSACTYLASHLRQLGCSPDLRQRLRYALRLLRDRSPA

Chain of PLK1 (P53350 whole entry): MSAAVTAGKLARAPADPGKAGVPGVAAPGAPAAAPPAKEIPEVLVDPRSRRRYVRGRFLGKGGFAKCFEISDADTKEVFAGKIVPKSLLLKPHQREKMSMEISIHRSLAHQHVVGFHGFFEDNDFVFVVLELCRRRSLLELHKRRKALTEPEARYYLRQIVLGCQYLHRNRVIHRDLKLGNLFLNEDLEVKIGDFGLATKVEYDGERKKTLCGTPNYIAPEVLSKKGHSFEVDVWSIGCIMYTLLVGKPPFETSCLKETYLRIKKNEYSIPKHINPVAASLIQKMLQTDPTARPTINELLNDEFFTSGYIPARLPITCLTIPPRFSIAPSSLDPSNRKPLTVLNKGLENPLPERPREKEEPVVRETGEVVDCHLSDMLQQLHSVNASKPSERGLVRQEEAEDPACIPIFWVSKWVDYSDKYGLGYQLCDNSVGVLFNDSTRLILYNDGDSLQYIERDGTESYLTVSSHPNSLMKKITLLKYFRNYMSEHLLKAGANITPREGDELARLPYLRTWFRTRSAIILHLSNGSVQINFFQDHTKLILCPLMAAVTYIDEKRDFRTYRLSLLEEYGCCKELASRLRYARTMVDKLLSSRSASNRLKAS
Chain of PLK2 (Q9NYY3 whole entry): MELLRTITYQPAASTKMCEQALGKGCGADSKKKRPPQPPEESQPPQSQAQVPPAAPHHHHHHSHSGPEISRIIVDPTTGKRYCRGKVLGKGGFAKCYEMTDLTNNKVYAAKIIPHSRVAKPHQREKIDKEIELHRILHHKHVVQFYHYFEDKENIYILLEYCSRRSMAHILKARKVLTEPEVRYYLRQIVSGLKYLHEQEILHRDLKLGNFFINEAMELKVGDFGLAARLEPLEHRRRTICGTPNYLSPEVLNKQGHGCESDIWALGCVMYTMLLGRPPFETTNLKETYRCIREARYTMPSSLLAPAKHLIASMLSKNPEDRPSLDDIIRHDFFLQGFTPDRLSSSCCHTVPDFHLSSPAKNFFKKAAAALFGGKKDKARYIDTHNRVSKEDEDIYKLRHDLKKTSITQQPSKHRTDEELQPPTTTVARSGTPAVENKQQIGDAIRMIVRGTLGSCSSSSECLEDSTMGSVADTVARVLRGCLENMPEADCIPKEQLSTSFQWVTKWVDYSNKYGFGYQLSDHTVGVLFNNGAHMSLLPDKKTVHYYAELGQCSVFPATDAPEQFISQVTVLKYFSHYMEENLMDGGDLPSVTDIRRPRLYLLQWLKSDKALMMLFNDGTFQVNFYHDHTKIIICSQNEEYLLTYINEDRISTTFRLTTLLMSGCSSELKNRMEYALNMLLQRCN

Row | SMILES | IC50 (PLK2) [nM] | IC50 (PLK1) [nM] | IC50 (PLK3) [nM]
1 | CC[C@@H]1C(=O)N(C)c2cnc(-n3ccnc3-c3ccccc3)nc2N1C1CCC1 [Example 47, (R)-8-cyclobutyl-7-ethyl-5-methyl-2-(2-phenyl-1H-imidazol-1-yl)-7,8-dihydropteridin-6(5H)-one] | < 1000 | < 1000 | 1000 to 10000
2 | CC[C@@H]1C(=O)N(C)c2cnc(-n3ccnc3-c3ccc(F)c(F)c3)nc2N1C1CCC1 [Example 48, (R)-8-cyclobutyl-2-(2-(3,4-difluorophenyl)-1H-imidazol-1-yl)-7-ethyl-5-methyl-7,8-dihydropteridin-6(5H)-one] | < 1000 | 1000 to 10000 | 10000 to 50000
3 | CC[C@@H]1C(=O)N(C)c2cnc(-n3ccnc3-c3ccccc3F)nc2N1C1CCC1 [Example 49, (R)-8-cyclobutyl-7-ethyl-2-(2-(2-fluorophenyl)-1H-imidazol-1-yl)-5-methyl-7,8-dihydropteridin-6(5H)-one] | < 1000 | < 1000 | 1000 to 10000
4 | CC[C@@H]1C(=O)N(C)c2cnc(-n3ccnc3-c3ccc(F)cc3)nc2N1C1CCC1 [Example 50, (R)-8-cyclobutyl-7-ethyl-2-(2-(4-fluorophenyl)-1H-imidazol-1-yl)-5-methyl-7,8-dihydropteridin-6(5H)-one] | < 1000 | 1000 to 10000 | 1000 to 10000
5 | CC[C@@H]1C(=O)N(C)c2cnc(-c3cccc(NS(C)(=O)=O)c3)nc2N1C1CCCC1 [Example 53, (R)—N-(3-(8-cyclopentyl-7-ethyl-5-methyl-6-oxo-5,6,7,8-tetrahydropteridin-2-yl)phenyl)methanesulfonamide] | < 1000 | 1000 to 10000 | 1000 to 10000
6 | CC[C@@H]1C(=O)N(C)c2cnc(-c3cccc(C(=O)N(C)C)c3)nc2N1C1CCCC1 [Example 57, (R)-3-(8-cyclopentyl-7-ethyl-5-methyl-6-oxo-5,6,7,8-tetrahydropteridin-2-yl)-N,N-dimethylbenzamide] | 1000 to 10000 | 1000 to 10000 | > 50000
7 | CC[C@@H]1C(=O)N(C)c2cnc(-n3cnc(-c4nccs4)c3)nc2N1C1CCCC1 [Example 60, (R)-8-cyclopentyl-7-ethyl-5-methyl-2-(4-(thiazol-2-yl)-1H-imidazol-1-yl)-7,8-dihydropteridin-6(5H)-one] | < 1000 | < 1000 | 1000 to 10000
8 | CC[C@@H]1C(=O)N(C)c2cnc(-c3ccc(S(C)(=O)=O)cc3)nc2N1C1CCCC1 [Example 64, (R)-8-cyclopentyl-7-ethyl-5-methyl-2-(4-(methylsulfonyl)phenyl)-7,8-dihydropteridin-6(5H)-one] | < 1000 | < 1000 | 1000 to 10000
9 | CC[C@@H]1C(=O)N(C)c2cnc(-c3cccc(C(N)=O)c3)nc2N1C1CCCC1 [Example 66, (R)-3-(8-cyclopentyl-7-ethyl-5-methyl-6-oxo-5,6,7,8-tetrahydropteridin-2-yl)benzamide] | < 1000 | < 1000 | 1000 to 10000
10 | CC[C@@H]1C(=O)N(C)c2cnc(-n3ccnc3-c3cccnc3)nc2N1C1CCCC1 [Example 67, (R)-8-cyclopentyl-7-ethyl-5-methyl-2-(2-(pyridin-3-yl)-1H-imidazol-1-yl)-7,8-dihydropteridin-6(5H)-one] | < 1000 | < 1000 | < 1000
11 | CC[C@@H]1C(=O)N(C)c2cnc(-c3cccc(S(C)(=O)=O)c3)nc2N1C1CCCC1 [Example 71, (R)-8-cyclopentyl-7-ethyl-5-methyl-2-(3-(methylsulfonyl)phenyl)-7,8-dihydropteridin-6(5H)-one] | 1000 to 10000 | 1000 to 10000 | 10000 to 50000
12 | CC[C@@H]1C(=O)N(C)c2cnc(-c3cccc(OCc4ccccc4)c3)nc2N1C1CCCC1 [Example 72, (R)-2-(3-(benzyloxy)phenyl)-8-cyclopentyl-7-ethyl-5-methyl-7,8-dihydropteridin-6(5H)-one] | 10000 to 50000 | > 50000 | > 50000
13 | CC[C@@H]1C(=O)N(C)c2cnc(-n3ccnc3-c3nccs3)nc2N1C1CCCC1 [Example 74, (R)-8-cyclopentyl-7-ethyl-5-methyl-2-(2-(thiazol-2-yl)-1H-imidazol-1-yl)-7,8-dihydropteridin-6(5H)-one] | < 1000 | < 1000 | < 1000
14 | CC[C@@H]1C(=O)N(C)c2cnc(-n3ccnc3Cc3ccccc3)nc2N1C1CCCC1 [Example 75, (R)-2-(2-benzyl-1H-imidazol-1-yl)-8-cyclopentyl-7-ethyl-5-methyl-7,8-dihydropteridin-6(5H)-one] | < 1000 | 1000 to 10000 | 10000 to 50000
15 | CC[C@@H]1C(=O)N(C)c2cnc(-n3ccnc3N3CCCC3=O)nc2N1C1CCCC1 [Example 82, (R)-8-cyclopentyl-7-ethyl-5-methyl-2-(2-(2-oxopyrrolidin-1-yl)-1H-imidazol-1-yl)-7,8-dihydropteridin-6(5H)-one] | 1000 to 10000 | 1000 to 10000 | 10000 to 50000
16 | CC[C@@H]1C(=O)N(C)c2cnc(-n3ccnc3C3=CCOCC3)nc2N1C1CCCC1 [Example 84, (R)-8-cyclopentyl-2-(2-(3,6-dihydro-2H-pyran-4-yl)-1H-imidazol-1-yl)-7-ethyl-5-methyl-7,8-dihydropteridin-6(5H)-one] | < 1000 | 1000 to 10000 | 10000 to 50000
17 | CC[C@@H]1C(=O)N(C)c2cnc(-c3ccncc3-c3ccccc3)nc2N1C1CCCC1 [Example 85, (R)-8-cyclopentyl-7-ethyl-5-methyl-2-(3-phenylpyridin-4-yl)-7,8-dihydropteridin-6(5H)-one] | < 1000 | < 1000 | < 1000
18 | CC[C@@H]1C(=O)N(C)c2cnc(-n3ccnc3N3CCCC3)nc2N1C1CCCC1 [Example 86, (R)-8-cyclopentyl-7-ethyl-5-methyl-2-(2-(pyrrolidin-1-yl)-1H-imidazol-1-yl)-7,8-dihydropteridin-6(5H)-one] | 1000 to 10000 | 10000 to 50000 | > 50000
19 | CC[C@@H]1C(=O)N(C)c2cnc(-n3ccnc3N3CCOCC3)nc2N1C1CCCC1 [Example 87, (R)-8-cyclopentyl-7-ethyl-5-methyl-2-(2-morpholino-1H-imidazol-1-yl)-7,8-dihydropteridin-6(5H)-one] | 1000 to 10000 | 1000 to 10000 | > 50000
20 | CC[C@@H]1C(=O)N(C)c2cnc(-n3ccnc3N3CCN(C)CC3)nc2N1C1CCCC1 [Example 88, (R)-8-cyclopentyl-7-ethyl-5-methyl-2-(2-(4-methylpiperazin-1-yl)-1H-imidazol-1-yl)-7,8-dihydropteridin-6(5H)-one] | 10000 to 50000 | 10000 to 50000 | > 50000
21 | CC[C@@H]1C(=O)N(C)c2cnc(-n3ccnc3-n3cccn3)nc2N1C1CCCC1 [Example 89, (R)-2-(2-(1H-pyrazol-1-yl)-1H-imidazol-1-yl)-8-cyclopentyl-7-ethyl-5-methyl-7,8-dihydropteridin-6(5H)-one] | < 1000 | < 1000 | < 1000
22 | CC[C@@H]1C(=O)N(C)c2cnc(-n3ccnc3C3CCOCC3)nc2N1C1CCCC1 [Example 90, (R)-8-cyclopentyl-7-ethyl-5-methyl-2-(2-(tetrahydro-2H-pyran-4-yl)-1H-imidazol-1-yl)-7,8-dihydropteridin-6(5H)-one] | 1000 to 10000 | 1000 to 10000 | 10000 to 50000
23 | CC[C@@H]1C(=O)N(C)c2cnc(-c3ccncc3N)nc2N1C1CCCC1 [Example 91, (R)-2-(3-aminopyridin-4-yl)-8-cyclopentyl-7-ethyl-5-methyl-7,8-dihydropteridin-6(5H)-one] | < 1000 | < 1000 | 1000 to 10000
24 | CC[C@@H]1C(=O)N(C)c2cnc(-c3ccncc3NC(=O)OC(C)(C)C)nc2N1C1CCCC1 [Example 92, (R)-tert-butyl 4-(8-cyclopentyl-7-ethyl-5-methyl-6-oxo-5,6,7,8-tetrahydropteridin-2-yl)pyridin-3-ylcarbamate] | 1000 to 10000 | 10000 to 50000 | > 50000
25 | CC[C@@H]1C(=O)N(C)c2cnc(-c3ccncc3N)nc2N1C(C)C [Example 93, (R)-2-(3-aminopyridin-4-yl)-7-ethyl-8-isopropyl-5-methyl-7,8-dihydropteridin-6(5H)-one] | < 1000 | 1000 to 10000 | > 50000
26 | CC[C@@H]1C(=O)N(C)c2cnc(-c3ccncc3NC(=O)OC(C)(C)C)nc2N1C(C)C [Example 94, (R)-tert-butyl 4-(7-ethyl-8-isopropyl-5-methyl-6-oxo-5,6,7,8-tetrahydropteridin-2-yl)pyridin-3-ylcarbamate] | 1000 to 10000 | 10000 to 50000 | > 50000
27 | CC[C@@H]1C(=O)N(C)c2cnc(-c3ccncc3-c3ccccc3)nc2N1C1CCC1 [Example 96, (R)-8-cyclobutyl-7-ethyl-5-methyl-2-(3-phenylpyridin-4-yl)-7,8-dihydropteridin-6(5H)-one] | < 1000 | < 1000 | < 1000
28 | CC[C@@H]1C(=O)N(C)c2cnc(-c3ccccc3C(F)(F)F)nc2N1C1CCC1 [Example 98, (R)-8-cyclobutyl-7-ethyl-5-methyl-2-(2-(trifluoromethyl)phenyl)-7,8-dihydropteridin-6(5H)-one] | 1000 to 10000 | 10000 to 50000 | > 50000
29 | CC[C@@H]1C(=O)N(C)c2cnc(-n3ccnc3-c3cncc(F)c3)nc2N1C1CCCC1 [Example 99, (R)-8-cyclopentyl-7-ethyl-2-(2-(5-fluoropyridin-3-yl)-1H-imidazol-1-yl)-5-methyl-7,8-dihydropteridin-6(5H)-one] | < 1000 | < 1000 | < 1000
30 | CC[C@@H]1C(=O)N(C)c2cnc(-c3ccncc3NC(=O)c3ccccc3)nc2N1C1CCCC1 [Example 102, (R)—N-(4-(8-cyclopentyl-7-ethyl-5-methyl-6-oxo-5,6,7,8-tetrahydropteridin-2-yl)pyridin-3-yl)benzamide] | < 1000 | 1000 to 10000 | 1000 to 10000
